Test results taken from PMC11078827, “Characterization and functional evidence for Orf2 of Streptomyces sp. 139 as a novel dipeptidase E” (Applied Microbiology and Biotechnology, 2024).

B1: Orf2 (Streptomyces tendae) (protein)
chain: MTSREPTIVATSGGHRVGTRTRVMFDALVHHAVDLSGVHGRRPRVMYVGTAIGDAEHFTARMTEAARIAGFDLTPLHLFPMPNVEDVEATVLDQDVVWVMGGSVANLLAVWRVHGLDGVMRRAWQAGVVLSGVSAGSLCWFEGGATDSFGPELRPLTNALGLLPYGNGVHYDTDEGRRPLTHRLVADGTLPTAHCTDDGVGLVYRGTELVEAVAEIPGKGAYLVRREGDEAVEERIEPRMLTVPSTS
notes: full-length orf2 (744 bp) in pET30a(+), His-tagged (mutants in pET28a), E. coli BL21(DE3), Ni-NTA

Tests used:
[1] = biological target: T1, Orf2 (Streptomyces tendae, UniProt A0ABX5ZPB3, H170A); assay: absorbance at […] nm, activity assay; assay type: biochemical; settings: 50 mM imidazole pH 7.5, 40 °C; substrate of the standard assay, not named again for the mutants
T1 construct: gene F3L20_11885; full-length orf2 (744 bp) in pET30a(+), His-tagged (mutants in pET28a), E. coli BL21(DE3), Ni-NTA

[2] = biological target: T2, Orf2 (Streptomyces tendae, UniProt A0ABX5ZPB3, D198A); assay: absorbance at […] nm, activity assay; assay type: biochemical; settings: 50 mM imidazole pH 7.5, 40 °C; substrate of the standard assay, not named again for the mutants
T2 construct: gene F3L20_11885; full-length orf2 (744 bp) in pET30a(+), His-tagged (mutants in pET28a), E. coli BL21(DE3), Ni-NTA

[3] = biological target: T3, Orf2 (Streptomyces tendae, UniProt A0ABX5ZPB3, D147A); assay: absorbance at […] nm, activity assay; assay type: biochemical; settings: 50 mM imidazole pH 7.5, 40 °C; substrate of the standard assay, not named again for the mutants
T3 construct: gene F3L20_11885; full-length orf2 (744 bp) in pET30a(+), His-tagged (mutants in pET28a), E. coli BL21(DE3), Ni-NTA

[4] = biological target: T4, Orf2 (Streptomyces tendae, UniProt A0ABX5ZPB3, S134A); assay: absorbance at […] nm, activity assay; assay type: biochemical; settings: 50 mM imidazole pH 7.5, 40 °C; substrate of the standard assay, not named again for the mutants
T4 construct: gene F3L20_11885; full-length orf2 (744 bp) in pET30a(+), His-tagged (mutants in pET28a), E. coli BL21(DE3), Ni-NTA

[5] = substrate: N[C@@H](CC(=O)O)C(=O)Nc1ccc([N+](=O)[O-])cc1; assay: purified protein; assay type: biochemical, Streptomyces tendae; settings: 50 mM imidazole pH 7.5, 40 °C, 10 min, substrate 3.91-500 μM, hydrolysis of chromogenic substrate

T1 sequence (A0ABX5ZPB3 entry or part of it H170A): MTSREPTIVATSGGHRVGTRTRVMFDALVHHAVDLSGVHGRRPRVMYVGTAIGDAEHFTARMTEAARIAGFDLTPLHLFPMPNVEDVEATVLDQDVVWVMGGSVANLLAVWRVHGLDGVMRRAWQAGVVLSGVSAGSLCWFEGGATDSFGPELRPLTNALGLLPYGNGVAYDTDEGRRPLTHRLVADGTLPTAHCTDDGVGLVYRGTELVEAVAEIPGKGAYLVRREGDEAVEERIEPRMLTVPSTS
T4 sequence (A0ABX5ZPB3 entry or part of it S134A): as the sequence (A0ABX5ZPB3 entry or part of it H170A) above, with S134A, A170H counted along it
T3 sequence (A0ABX5ZPB3 entry or part of it D147A): as the sequence (A0ABX5ZPB3 entry or part of it H170A) above, with D147A, A170H counted along it
T2 sequence (A0ABX5ZPB3 entry or part of it D198A): as the sequence (A0ABX5ZPB3 entry or part of it H170A) above, with A170H, D198A counted along it

| Molecule | absorbance at 405 nm, activity assay [1] | absorbance at 405 nm, activity assay [2] | absorbance at 405 nm, activity assay [3] | absorbance at 405 nm, activity assay [4] | Km [5] | kcat [5] |
| --- | --- | --- | --- | --- | --- | --- |
| N[C@@H](CC(=O)O)C(=O)Nc1ccc([N+](=O)[O-])cc1 [Asp-ρNA] | all of these mutant proteins lost their activity (data not shown) | all of these mutant proteins lost their activity (data not shown) | all of these mutant proteins lost their activity (data not shown) | all of these mutant proteins lost their activity (data not shown) | – | – |
| B1 | – | – | – | – | 1709 µM | 5.628 s⁻¹ |
